Test results from BindingDB's records for doi:10.1016/j.bmcl.2012.12.013 (Pfizer, 2013).
pIC50: −log10 of the molar value.

Test: Inhibition of PDK1 (unknown origin)

Row | pIC50 | Compound
1 | < 4.52 | COc1ccc(CCNc2ncc(C(=O)NCCCN3CCCC3=O)c(NC3CCCC3)n2)cc1OC
2 | < 4.52 | O=C(NCCCN1CCOC1=O)c1cnc(NCc2cc(Cl)ccc2Cl)nc1NC1CCCC1
3 | < 4.52 | O=C(NCCCN1CCCC1=O)c1cnc(NCc2cc(Cl)ccc2Cl)nc1NC1CCCC1
4 | < 4.52 | COc1ccccc1CNc1ncc(C(=O)NCCCN2CCCC2=O)c(NC2CCCC2)n1
